Measurements from article PMC5927461, “Activation of host transient receptor potential (TRP) channels by praziquantel stereoisomers” (PLoS Neglected Tropical Diseases, 2018).

Key:
Format in all cases: cell-based
hTRPC3 = biological target: T1, hTRPC3 (Homo sapiens, UniProt Q13507); assay: TRP channel panel primary screen (membrane potential dye, stable HEK line); details: 0.3-300μM; effects over the micromolar range
T1 sequence (Q13507 1-921): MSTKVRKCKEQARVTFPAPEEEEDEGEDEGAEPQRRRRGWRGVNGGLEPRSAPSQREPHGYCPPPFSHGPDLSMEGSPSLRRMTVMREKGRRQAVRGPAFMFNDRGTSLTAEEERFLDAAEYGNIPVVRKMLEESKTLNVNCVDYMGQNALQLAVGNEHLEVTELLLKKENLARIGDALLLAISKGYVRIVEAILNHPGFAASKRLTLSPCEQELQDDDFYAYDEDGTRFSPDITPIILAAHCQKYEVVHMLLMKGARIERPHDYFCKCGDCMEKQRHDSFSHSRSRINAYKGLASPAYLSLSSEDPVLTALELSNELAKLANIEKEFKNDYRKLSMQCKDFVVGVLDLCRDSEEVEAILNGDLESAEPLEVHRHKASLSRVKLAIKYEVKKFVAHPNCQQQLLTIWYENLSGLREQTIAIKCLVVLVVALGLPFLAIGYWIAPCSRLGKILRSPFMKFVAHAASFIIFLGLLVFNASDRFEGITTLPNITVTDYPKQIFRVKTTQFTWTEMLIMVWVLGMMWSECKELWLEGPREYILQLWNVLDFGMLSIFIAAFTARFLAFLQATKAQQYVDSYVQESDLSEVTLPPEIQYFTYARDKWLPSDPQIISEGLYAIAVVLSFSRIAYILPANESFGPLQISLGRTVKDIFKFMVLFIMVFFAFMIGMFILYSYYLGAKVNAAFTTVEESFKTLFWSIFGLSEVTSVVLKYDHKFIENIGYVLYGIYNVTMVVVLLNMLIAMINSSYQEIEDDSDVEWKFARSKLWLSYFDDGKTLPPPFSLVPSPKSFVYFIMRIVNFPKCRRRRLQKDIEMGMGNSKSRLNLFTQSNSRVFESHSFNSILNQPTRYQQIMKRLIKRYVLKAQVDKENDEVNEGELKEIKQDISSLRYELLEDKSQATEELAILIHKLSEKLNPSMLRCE
Protocol: (§1) ±PZQ, (R)-PZQ and (S)-PZQ were screened against a panel of 17 human TRP channels (SB Drug Discovery, Glasgow). For all hTRPs, except for TRPM5, individual channel constructs were stably expressed in HEK cell lines. TRMP5 was expressed in a stable CHO cell line. In preparation for the assays, cells were trypsinized, counted and seeded (50,000 cells/well) in black, clear-bottomed 96 well plates and incubated overnight. The following day, cells were loaded with a fluorescent indicator (FLIPR Calcium 5 Assay kit for TRPA1, TRPV1, TRPV2, TRPV3, TRPV4, TRPV5, TRPC1, TRPM2, TRPM3 and TRPM8, or a membrane potential dye (FLIPR Membrane Potential Red Assay Kit for TRPC3, TRPC4, TRPC5, TRPC6, TRPC7, TRPM4 and TRPM5) prepared according to the manufacturer’s instructions in HEPES buffered Hank’s balanced salt solution (HBSS). Dye solution (10μl) was added to appropriate wells and incubated at 37°C for 1 hour. All assays were performed at room temperature. Compounds were tested at 0.3, 1, 3, 10, 30, 100μM and 300μM in triplicate in both agonist and antagonist mode to determine EC50 and IC50 values, which were compared with reference compounds. Compounds were screened at a final DMSO concentration of 0.5%. Plates were screened using a Flexstation (Molecular Devices, FX01138), monitoring fluorescence values every ~1.52 seconds. For ‘agonist mode’ testing, 10μl of the appropriate test compound, or standard agonist, was added after 20 seconds and fluorescence monitored for 2 minutes at λex = 485nm, λem = 525nm for Ca^2+ imaging and λex = 530nm, λem = 565nm for membrane potential measurements. For ‘antagonist mode’ testing, test compounds and standard inhibitors were added to appropriate wells and incubated for 10 minutes at room temperature prior to addition of standard agonist compound.

hTRPC7 = biological target: T2, hTRPC7 (Homo sapiens, UniProt Q9HCX4); assay: as above; details: 0.3-300μM; effects over the micromolar range
T2 sequence (Q9HCX4 1-862): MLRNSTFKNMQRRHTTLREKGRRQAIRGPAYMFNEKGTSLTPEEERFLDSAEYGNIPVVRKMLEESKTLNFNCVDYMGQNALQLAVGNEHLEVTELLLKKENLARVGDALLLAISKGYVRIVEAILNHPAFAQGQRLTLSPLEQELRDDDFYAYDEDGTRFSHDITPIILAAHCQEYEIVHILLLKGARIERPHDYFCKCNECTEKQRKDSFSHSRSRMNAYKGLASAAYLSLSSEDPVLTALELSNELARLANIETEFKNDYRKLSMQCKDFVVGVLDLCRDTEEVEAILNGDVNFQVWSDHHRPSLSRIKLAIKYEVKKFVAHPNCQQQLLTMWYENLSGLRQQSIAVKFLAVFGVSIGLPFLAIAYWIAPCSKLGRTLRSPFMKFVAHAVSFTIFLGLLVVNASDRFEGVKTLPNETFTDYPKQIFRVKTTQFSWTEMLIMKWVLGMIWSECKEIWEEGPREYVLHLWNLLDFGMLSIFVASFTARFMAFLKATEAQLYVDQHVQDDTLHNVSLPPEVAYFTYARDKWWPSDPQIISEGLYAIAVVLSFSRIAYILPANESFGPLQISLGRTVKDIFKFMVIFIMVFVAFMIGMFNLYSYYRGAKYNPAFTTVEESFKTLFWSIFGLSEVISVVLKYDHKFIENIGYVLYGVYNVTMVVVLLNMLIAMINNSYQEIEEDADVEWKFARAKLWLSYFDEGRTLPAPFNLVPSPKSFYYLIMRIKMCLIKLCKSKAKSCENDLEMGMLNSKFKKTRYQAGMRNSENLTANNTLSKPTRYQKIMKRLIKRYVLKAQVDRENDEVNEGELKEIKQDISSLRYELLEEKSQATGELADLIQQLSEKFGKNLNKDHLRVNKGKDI
Protocol: as §1

TRPV1 = TRPV1 (Homo sapiens, UniProt Q8NER1); assay: TRP channel panel primary screen (FLIPR Calcium 5, stable HEK line); details: 0.3-300μM
Protocol: as §1

Sequence of TRPV1 (Q8NER1 whole entry): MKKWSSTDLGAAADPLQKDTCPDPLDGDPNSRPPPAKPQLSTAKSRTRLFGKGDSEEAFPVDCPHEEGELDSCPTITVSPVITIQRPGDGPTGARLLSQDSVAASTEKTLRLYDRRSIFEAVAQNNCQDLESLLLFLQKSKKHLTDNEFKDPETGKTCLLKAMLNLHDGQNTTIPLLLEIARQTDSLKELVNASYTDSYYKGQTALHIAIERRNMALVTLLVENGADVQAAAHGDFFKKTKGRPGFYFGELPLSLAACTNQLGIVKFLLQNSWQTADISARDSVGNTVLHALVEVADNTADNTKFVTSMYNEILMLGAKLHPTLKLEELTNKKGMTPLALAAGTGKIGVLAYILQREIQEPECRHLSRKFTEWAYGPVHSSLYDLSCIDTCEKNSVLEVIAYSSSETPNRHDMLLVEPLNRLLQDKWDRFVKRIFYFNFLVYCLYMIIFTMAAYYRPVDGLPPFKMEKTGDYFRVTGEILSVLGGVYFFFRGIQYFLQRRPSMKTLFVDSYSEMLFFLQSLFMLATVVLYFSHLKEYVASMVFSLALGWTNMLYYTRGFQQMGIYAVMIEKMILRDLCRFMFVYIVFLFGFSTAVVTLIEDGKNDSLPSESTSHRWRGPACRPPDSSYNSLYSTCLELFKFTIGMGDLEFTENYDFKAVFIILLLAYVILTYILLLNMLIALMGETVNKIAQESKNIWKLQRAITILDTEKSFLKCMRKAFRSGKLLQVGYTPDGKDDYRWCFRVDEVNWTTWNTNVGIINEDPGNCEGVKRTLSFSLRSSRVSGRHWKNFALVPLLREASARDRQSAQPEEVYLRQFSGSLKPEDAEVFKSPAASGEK

activity at hTRPC3 in primary screen (hTRPC3) | activity at hTRPC7 in primary screen (hTRPC7) | activity against TRPV1 in primary screen (TRPV1) | Compound
activated | activated |  | O=C(C1CCCCC1)N1CC(=O)N2CCc3ccccc3[C@H]2C1 [(S)-PZQ]
displayed activity | displayed activity | no activity | O=C(C1CCCCC1)N1CC(=O)N2CCc3ccccc3C2C1 (racemic) [±PZQ, praziquantel]
